# Reference: patent publication US11161817B2, “Quinoline derivative and use thereof as tyrosine kinase inhibitor” (CHONGQING PHARMACEUTICAL INDUSTRIAL RESEARCH INSTITUTE CO. …, priority 2017, dated 2021)
# Key:
# c-Met = c-Met (Homo sapiens, UniProt P08581); test: In vitro kinase activity test, c-Met
# Protocol: (§1) Protein kinase with a corresponding enzyme concentration of X (shown in table 1), peptide substrate with a concentration of Y, ATP with a specific concentration, 8 mM MOPS (pH 7.0), and 10 mM MgCl2 were added. The detection plate was P30 filtermat, and the reaction was performed at room temperature for T minutes, and the reaction system was 10 μL.
# (§2) The reaction was terminated by adding 0.5% phosphoric acid to the kinase reaction solution, and the plate was read by an Envision instrument.
# (§3) The data were converted into phosphorylation rate and inhibition rate, and subjected to parameter curve-fitting (GraphPad Software) to obtain IC50 data of the compounds.
# KDR(h) = KDR(h) (Homo sapiens, UniProt P35968); test: In vitro kinase activity test, KDR(h)
# Protocol: as §1, §2, §3
# FGFR2(h) = FGFR2(h) (Homo sapiens, UniProt P21802); test: In vitro kinase activity test, FGFR2(h)
# Protocol: as §1, §2, §3
# TNIK(h) = TNIK(h) (Homo sapiens, UniProt Q9UKE5); test: In vitro kinase activity test, TNIK(h)
# Protocol: as §1, §2, §3
# Flt4(h) = Flt4(h) (Homo sapiens, UniProt P35916); test: In vitro kinase activity test, Flt4(h)
# Protocol: as §1, §2, §3
# PDGFRα(h) = PDGFRα(h) (Homo sapiens, UniProt P16234); test: In vitro kinase activity test, PDGFRα(h)
# Protocol: as §1, §2, §3
# cKit(h) = cKit(h) (Homo sapiens, UniProt P10721); test: In vitro kinase activity test, cKit(h)
# Protocol: as §1, §2, §3
# MINK(h) = MINK(h) (Homo sapiens, UniProt Q8N4C8); test: In vitro kinase activity test, MINK(h)
# Protocol: as §1, §2, §3
# PDGFRβ(h) = PDGFRβ(h) (Homo sapiens, UniProt P09619); test: In vitro kinase activity test, PDGFRβ(h)
# Protocol: as §1, §2, §3
# Abl(h) = Abl(h) (Homo sapiens, UniProt P00519); test: In vitro kinase activity test, Abl(h)
# Protocol: as §1, §2, §3
# FGFR3(h) = FGFR3(h) (Homo sapiens, UniProt P22607); test: In vitro kinase activity test, FGFR3(h)
# Protocol: as §1, §2, §3
# FGFR4(h) = FGFR4(h) (Homo sapiens, UniProt P22455); test: In vitro kinase activity test, FGFR4(h)
# Protocol: as §1, §2, §3
# FGFR1(h) = FGFR1(h) (Homo sapiens, UniProt P11362); test: In vitro kinase activity test, FGFR1(h)
# Protocol: as §1, §2, §3
# Flt1(h) = Flt1(h) (Homo sapiens, UniProt P17948); test: In vitro kinase activity test, Flt1(h)
# Protocol: as §1, §2, §3
# cKit(V560G)(h) = cKit(V560G)(h) (Homo sapiens, UniProt P10721, V560G); test: In vitro kinase activity test, cKit(V560G)(h)
# Protocol: as §1, §2, §3
# Aurora-A(h) = target: T1, Aurora-A(h) (Homo sapiens, UniProt O14965); test: In vitro kinase activity test, Aurora-A(h)
# T1 sequence (O14965 1-403): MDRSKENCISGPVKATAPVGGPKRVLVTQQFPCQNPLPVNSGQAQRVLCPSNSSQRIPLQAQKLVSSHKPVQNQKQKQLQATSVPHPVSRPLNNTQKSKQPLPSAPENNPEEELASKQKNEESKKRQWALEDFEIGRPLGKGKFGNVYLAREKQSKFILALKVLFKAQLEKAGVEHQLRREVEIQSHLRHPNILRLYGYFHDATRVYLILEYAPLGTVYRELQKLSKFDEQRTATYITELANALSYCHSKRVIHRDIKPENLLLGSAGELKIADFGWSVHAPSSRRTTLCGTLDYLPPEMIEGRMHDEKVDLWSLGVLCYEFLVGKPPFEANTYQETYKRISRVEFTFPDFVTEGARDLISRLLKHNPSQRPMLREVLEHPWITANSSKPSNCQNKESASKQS
# Protocol: as §1, §2, §3
# Lck(h) = Lck(h) (Homo sapiens, UniProt P06239); test: In vitro kinase activity test, Lck(h)
# Protocol: as §1, §2, §3
# Sequence of TNIK(h) (Q9UKE5 whole entry): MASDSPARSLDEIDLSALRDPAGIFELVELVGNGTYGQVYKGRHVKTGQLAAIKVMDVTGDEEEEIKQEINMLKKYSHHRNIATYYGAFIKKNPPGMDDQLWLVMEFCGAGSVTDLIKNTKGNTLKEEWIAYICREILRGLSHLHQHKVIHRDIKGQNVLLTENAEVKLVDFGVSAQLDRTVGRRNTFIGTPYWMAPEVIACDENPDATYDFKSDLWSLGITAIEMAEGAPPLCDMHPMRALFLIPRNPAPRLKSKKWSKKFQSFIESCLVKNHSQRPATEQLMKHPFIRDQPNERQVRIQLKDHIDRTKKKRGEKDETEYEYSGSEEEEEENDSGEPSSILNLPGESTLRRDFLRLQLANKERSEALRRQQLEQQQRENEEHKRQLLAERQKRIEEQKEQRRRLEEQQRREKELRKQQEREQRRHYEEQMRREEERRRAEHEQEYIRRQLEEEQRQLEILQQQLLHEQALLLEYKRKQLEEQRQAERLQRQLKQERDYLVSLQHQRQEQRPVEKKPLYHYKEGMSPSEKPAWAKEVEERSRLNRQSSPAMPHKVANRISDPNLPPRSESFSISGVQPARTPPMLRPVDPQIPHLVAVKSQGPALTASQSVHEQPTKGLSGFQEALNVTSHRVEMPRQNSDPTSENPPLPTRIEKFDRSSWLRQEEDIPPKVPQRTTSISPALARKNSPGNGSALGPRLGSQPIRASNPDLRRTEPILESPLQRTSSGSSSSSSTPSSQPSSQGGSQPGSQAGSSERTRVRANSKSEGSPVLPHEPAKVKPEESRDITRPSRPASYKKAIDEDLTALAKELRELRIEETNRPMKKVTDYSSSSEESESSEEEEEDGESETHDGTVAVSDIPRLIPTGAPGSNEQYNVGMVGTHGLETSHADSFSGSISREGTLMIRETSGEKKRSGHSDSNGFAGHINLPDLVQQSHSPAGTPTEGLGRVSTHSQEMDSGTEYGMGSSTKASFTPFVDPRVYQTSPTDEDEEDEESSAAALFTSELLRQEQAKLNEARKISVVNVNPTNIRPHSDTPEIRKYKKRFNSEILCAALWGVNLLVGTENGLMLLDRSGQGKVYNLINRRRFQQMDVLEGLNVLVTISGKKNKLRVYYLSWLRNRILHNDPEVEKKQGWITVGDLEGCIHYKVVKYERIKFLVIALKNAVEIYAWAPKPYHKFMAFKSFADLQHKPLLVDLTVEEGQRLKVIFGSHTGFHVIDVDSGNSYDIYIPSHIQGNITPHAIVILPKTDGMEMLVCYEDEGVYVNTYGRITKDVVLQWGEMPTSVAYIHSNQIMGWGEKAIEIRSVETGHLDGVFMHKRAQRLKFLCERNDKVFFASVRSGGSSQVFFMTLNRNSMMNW
# Sequence of Abl(h) (P00519 whole entry): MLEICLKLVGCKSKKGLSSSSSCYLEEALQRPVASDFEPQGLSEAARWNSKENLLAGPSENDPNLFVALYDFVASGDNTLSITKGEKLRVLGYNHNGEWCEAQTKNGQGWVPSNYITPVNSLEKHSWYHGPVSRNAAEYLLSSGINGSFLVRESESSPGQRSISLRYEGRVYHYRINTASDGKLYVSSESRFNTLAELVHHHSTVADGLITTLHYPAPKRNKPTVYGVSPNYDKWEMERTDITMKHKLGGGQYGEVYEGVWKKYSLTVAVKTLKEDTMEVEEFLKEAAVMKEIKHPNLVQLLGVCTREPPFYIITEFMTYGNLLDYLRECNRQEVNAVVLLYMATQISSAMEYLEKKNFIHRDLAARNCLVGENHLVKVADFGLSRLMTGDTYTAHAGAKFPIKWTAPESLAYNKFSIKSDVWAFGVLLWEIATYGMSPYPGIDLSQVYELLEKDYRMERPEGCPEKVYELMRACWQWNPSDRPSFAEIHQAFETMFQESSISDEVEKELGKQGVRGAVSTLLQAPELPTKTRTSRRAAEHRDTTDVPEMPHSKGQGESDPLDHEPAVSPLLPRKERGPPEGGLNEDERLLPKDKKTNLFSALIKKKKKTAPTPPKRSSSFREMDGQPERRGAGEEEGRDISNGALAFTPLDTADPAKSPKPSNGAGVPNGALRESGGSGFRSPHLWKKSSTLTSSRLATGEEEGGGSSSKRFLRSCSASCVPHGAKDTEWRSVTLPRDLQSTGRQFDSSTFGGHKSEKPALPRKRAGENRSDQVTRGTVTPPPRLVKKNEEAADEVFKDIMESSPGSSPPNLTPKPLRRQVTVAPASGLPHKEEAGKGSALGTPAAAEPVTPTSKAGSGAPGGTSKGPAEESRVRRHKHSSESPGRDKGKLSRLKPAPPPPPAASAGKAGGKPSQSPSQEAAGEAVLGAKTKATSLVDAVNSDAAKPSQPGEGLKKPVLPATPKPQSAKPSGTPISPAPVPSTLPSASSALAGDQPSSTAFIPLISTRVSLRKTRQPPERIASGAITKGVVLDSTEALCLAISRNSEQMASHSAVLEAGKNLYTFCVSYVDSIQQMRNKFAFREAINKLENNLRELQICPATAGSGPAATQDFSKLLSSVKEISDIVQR
# Sequence of c-Met (P08581 25-1390): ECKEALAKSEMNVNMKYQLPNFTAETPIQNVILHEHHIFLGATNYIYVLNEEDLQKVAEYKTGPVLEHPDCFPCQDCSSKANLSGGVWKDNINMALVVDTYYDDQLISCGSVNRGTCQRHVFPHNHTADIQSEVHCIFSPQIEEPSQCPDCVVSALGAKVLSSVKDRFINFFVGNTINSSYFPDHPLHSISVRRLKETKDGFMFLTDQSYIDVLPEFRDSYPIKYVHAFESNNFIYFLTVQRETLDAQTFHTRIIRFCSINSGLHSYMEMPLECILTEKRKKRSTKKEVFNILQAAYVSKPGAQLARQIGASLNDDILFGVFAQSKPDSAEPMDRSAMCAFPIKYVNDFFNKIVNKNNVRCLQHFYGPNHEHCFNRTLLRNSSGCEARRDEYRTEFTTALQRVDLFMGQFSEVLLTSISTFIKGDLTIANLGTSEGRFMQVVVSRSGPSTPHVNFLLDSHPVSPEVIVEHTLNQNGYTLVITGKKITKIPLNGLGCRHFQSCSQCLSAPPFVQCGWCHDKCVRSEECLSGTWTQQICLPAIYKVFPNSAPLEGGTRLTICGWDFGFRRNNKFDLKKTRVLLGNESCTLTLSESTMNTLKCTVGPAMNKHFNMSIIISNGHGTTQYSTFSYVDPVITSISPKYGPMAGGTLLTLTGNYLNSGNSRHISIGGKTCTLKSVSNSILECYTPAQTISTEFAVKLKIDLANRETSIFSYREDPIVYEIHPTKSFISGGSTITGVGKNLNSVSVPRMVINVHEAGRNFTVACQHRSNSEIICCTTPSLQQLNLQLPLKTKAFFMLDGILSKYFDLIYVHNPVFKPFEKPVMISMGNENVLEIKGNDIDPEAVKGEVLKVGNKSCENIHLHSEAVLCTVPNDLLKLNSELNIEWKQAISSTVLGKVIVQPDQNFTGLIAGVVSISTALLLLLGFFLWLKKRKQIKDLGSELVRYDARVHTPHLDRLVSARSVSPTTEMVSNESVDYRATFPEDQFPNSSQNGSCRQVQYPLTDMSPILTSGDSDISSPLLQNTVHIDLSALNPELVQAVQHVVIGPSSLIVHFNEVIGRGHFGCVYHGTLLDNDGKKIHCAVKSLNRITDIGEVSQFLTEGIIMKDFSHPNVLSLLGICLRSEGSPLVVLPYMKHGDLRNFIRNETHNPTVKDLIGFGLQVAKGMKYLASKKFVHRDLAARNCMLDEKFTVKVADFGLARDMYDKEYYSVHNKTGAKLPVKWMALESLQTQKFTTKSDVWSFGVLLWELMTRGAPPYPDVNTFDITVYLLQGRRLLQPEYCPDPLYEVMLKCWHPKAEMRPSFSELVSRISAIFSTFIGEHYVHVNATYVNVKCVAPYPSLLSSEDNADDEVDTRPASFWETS
# Sequence of FGFR3(h) (P22607 23-806): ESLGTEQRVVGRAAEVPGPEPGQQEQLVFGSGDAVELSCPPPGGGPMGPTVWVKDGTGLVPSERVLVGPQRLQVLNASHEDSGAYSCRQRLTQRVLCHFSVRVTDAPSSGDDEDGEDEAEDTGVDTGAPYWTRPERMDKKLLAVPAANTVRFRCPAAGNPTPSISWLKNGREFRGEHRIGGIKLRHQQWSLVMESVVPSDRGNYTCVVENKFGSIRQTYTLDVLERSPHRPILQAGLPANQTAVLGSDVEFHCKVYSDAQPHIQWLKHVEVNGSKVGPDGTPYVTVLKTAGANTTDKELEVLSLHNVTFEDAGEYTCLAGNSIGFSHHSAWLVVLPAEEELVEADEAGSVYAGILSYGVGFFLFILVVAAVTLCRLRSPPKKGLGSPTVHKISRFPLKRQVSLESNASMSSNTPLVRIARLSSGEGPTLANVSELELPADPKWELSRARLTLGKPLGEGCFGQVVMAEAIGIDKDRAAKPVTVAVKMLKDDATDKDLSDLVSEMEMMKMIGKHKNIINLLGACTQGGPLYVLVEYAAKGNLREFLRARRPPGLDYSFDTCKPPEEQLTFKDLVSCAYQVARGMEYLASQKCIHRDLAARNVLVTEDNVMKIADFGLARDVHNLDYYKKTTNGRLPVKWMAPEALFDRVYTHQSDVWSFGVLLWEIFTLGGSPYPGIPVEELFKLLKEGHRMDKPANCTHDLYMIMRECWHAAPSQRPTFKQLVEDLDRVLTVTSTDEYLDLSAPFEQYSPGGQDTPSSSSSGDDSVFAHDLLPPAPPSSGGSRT
smiles,measurement,setting,value
COc1cc2nccc(Oc3ccc(NC(=O)NC4CC4)c(Cl)c3F)c2cc1C(N)=O [Embodiment 1B],IC50,"c-Met; c-Met IC50, Table 2, ATP 10 μM",99.8 nM
same,IC50,"c-Met; c-Met kinase activity IC50, Table 3, value 45.6 is from the second test (Note 1)",45.6 nM
same,"activity on c-Met increased, compared with Comparative Compound 1",c-Met; from Table 2,5 times
same,IC50,KDR(h),9 nM
same,IC50,FGFR2(h),6 nM
same,"activity on FGFR2 increased, compared with Comparative Compound 1",FGFR2(h); from Table 2,2 times
same,IC50,TNIK(h),14 nM
same,"activity on TNIK improved, compared with Comparative Compound 2",TNIK(h); from Table 2,8 times
same,"activity on TNIK increased, compared with Comparative Compound 1",TNIK(h); from Table 2,6.5 times
same,IC50,Flt4(h),3 nM
same,IC50,PDGFRα(h),120 nM
same,IC50,cKit(h),68 nM
same,IC50,MINK(h),48 nM
same,IC50,PDGFRβ(h),226 nM
same,IC50,Abl(h),7 nM
same,"activity on ABL improved, compared with Comparative Compound 2",Abl(h); from Table 2,~70 times
same,"activity on ABL increased, compared with Comparative Compound 1",Abl(h); from Table 2,5 times
same,IC50,FGFR3(h),26 nM
same,"activity on FGFR3 increased, compared with Comparative Compound 1",FGFR3(h); from Table 2,5 times
same,IC50,FGFR4(h),92 nM
same,"activity on FGFR4 increased, compared with Comparative Compound 1",FGFR4(h); from Table 2,12 times
same,IC50,FGFR1(h),9 nM
same,"activity on FGFR1 increased, compared with Comparative Compound 1",FGFR1(h); from Table 2,8 times
same,IC50,Flt1(h),10 nM
same,IC50,cKit(V560G)(h),262 nM
same,IC50,Aurora-A(h),2080 nM
same,IC50,Lck(h),43 nM
